Test system: μpatterned hiPSC-CMs
Test: traction force microscopy of moving microbeads under beating μpatterned hiPSC-CMs
Format: cell-based, human
Procedure: We cultured single hiPSC-CMs on Matrigel micropatterns, which were transferred from printed glass coverslips onto the surface of polyacrylamide hydrogels with a stiffness of 10 kPa as previously described. (Ribeiro 2015a) In summary, Matrigel was diluted 1:10 in L15 medium (Thermo Fisher) and added to the top of elastomeric microstamps composed of polydimethylsiloxane 182 (Dow Corning) to be incubated at 3-4° C. overnight. Microstamps consisted of 2000 μm^2 rectangular features with an aspect ratio of 7:1 (length:width). We gently aspirated Matrigel after the overnight incubation, washed the stamps twice in L15 medium, aspirated L15 medium from the surface and dried it with a low stream of N2 gas. We then used microstamps to micropattern the Matrigel rectangular features on clean glass coverslips by microcontact printing. Matrigel on micropatterns was transferred to the surface of the polyacrylamide substrates during the gelation process by placing the patterned coverslip in contact with the top of the acrylamide prepolymer solution right before gelation. The aqueous prepolymer solution to be gelled was composed of acrylamide (Sigma-Aldrich)(10% w/v), bisacrylamide (Sigma-Aldrich) (0.1% w/v), ammonium persulfate (Sigma-Aldrich) (0.01% w/v) and N,N,N′,N′-tetramethylethylenediamine (Sigma-Aldrich) (0.1% v/v), HEPES (Thermo Fisher) (35 mM) and Milli-Q water. To calculate the forces generated by cells attached to polyacrylamide surfaces with traction force microscopy, green fluorescent microbeads with a diameter of 0.2 μm (Thermo Fisher) were also dispersed in the gel solution to yield a final concentration of 6.25×10^9 microbeads/mL. We gelled acrylamide on top of another coverslip functionalized with 3-(trimethoxysilyl)propyl methacrylate (Sigma-Aldrich), which binds polyacrylamide. […] Once polymerized, polyacrylamide substrates were incubated in PBS for at least 2 hours and the top coverslips were carefully removed with a razor blade. We seeded hiPSC-CMs on these polyacrylamide hydrogel substrates after washing them 3 times with PBS.
We passaged hiPSC-CMs onto micropatterned polyacrylamide devices at a density of 1000 cells/cm^2. For this purpose, cultures of thawed cells were washed twice with PBS and incubated in 1 mL of Accutase for 8-10 min. After observing cell detachment from the bottom of the wells, we quenched Accutase with Dulbecco's modified Eagle's medium (Thermo Fisher) containing 12% fetal bovine serum and counted the concentration of cells in medium with a hemocytometer. Then, we centrifuged cells at 83 rcf for 3 min at room temperature and aspirated the supernatant to resuspend the pelleted cells in the required volume of medium (RPMI-1640 cell-culture medium with 5 μM ROCK inhibitor) for adding 150 μL of cell solution to the surface of hydrogel devices at a concentration of 1000 cells/cm^2. After 1.5 h of incubation, we added 2.5 mL of medium to the well containing hydrogel devices and added fresh medium without ROCK inhibitor after 2 days. Single beating cells on Matrigel patterns were analyzed between 5-10 days after seeding.
We imaged the movement of beating hiPSC-CMs and the displacement of fluorescent microbeads embedded in polyacrylamide substrates with a Zeiss Axiovert 200M inverted microscope equipped with a Zeiss Axiocam MRm CCD camera. This microscope also contained an environmental chamber (PeCon) to set temperature at 37° C. Unless otherwise noted, we acquired microscopy videos while electrically pacing hiPSC-CMs with 10 ms-wide bipolar pulses of electric-field stimulation at 10-15 V with a frequency of 1 Hz (Myopacer, lonOptix).
To induce contractile changes in hiPSC-CMs, we added drugs known to affect CM contractile machinery to the culture medium. We analyzed the mechanical output of cells after adding drugs. […]

[1] = extracellular caffeine slowly increased up to 10 μM (FIG. 3C)

## Cn1c(=O)c2c(ncn2C)n(C)c1=O [caffeine]
[1]
  kinetics of relaxation right after adding caffeine: sudden decrease
  mechanical output right after adding caffeine: sudden increase
Low doses of caffeine slowly diffused through the culture media, single cell (FIG. 3B)
  t̂ (time between peak velocity of contraction and peak velocity of relaxation): increase
With increasing caffeine extracellular concentration (FIG. 3)
  magnitude of the contractions that followed and kinetics of relaxation: considerably decreased
